# How the values were obtained:
# TGF-beta receptor type-1 [1] = target: T1, TGF-beta receptor type-1 (Homo sapiens, UniProt P36897); experiment: Inhibition of ALK5-mediated […]-induced Smad2/3 phosphorylation in human A549 cells preincubated for 2 hrs before addition of […] after 1 hr by fluorescence analysis; type: cell-based
# T1 sequence (P36897 whole entry): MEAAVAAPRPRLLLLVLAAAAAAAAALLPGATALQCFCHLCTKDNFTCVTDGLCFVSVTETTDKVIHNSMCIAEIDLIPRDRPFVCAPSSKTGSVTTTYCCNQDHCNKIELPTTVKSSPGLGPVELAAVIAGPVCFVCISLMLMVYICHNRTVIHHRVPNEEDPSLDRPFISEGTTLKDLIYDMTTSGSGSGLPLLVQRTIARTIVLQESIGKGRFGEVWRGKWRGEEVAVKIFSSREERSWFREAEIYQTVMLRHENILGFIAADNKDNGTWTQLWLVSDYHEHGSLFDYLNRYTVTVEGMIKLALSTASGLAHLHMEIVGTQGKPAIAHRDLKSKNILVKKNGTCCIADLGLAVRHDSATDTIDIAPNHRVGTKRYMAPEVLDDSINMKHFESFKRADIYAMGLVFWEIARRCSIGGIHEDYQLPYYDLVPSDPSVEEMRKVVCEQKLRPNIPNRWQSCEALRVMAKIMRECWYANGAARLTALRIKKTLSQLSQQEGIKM
# TGF-beta receptor type-1 [2] = target: T1, TGF-beta receptor type-1; experiment: Inhibition of human ALK5 using GST-tagged Smad3 as substrate assessed as substrate phosphorylation after 30 mins by ELISA
# [3] = Solubility of the compound by HPLC analysis; type: physicochemical
# Mus musculus [4] = experiment: Inhibition of ALK5-mediated Smad2 phosphorylation in skin of C57BL/6 mouse depilation model at 1% administered topically measured after 8 hrs by Western blot analysis; type: functional
# Mus musculus [5] = experiment: Inhibition of ALK5-mediated Smad2 phosphorylation in skin of C57BL/6 mouse depilation model at 3% administered topically measured after 8 hrs by Western blot analysis; type: functional
# [6] = target: Vascular endothelial growth factor receptor 2 (Homo sapiens, UniProt P35968); experiment: Inhibition of KDR
# Sequence of Vascular endothelial growth factor receptor 2 (P35968 whole entry): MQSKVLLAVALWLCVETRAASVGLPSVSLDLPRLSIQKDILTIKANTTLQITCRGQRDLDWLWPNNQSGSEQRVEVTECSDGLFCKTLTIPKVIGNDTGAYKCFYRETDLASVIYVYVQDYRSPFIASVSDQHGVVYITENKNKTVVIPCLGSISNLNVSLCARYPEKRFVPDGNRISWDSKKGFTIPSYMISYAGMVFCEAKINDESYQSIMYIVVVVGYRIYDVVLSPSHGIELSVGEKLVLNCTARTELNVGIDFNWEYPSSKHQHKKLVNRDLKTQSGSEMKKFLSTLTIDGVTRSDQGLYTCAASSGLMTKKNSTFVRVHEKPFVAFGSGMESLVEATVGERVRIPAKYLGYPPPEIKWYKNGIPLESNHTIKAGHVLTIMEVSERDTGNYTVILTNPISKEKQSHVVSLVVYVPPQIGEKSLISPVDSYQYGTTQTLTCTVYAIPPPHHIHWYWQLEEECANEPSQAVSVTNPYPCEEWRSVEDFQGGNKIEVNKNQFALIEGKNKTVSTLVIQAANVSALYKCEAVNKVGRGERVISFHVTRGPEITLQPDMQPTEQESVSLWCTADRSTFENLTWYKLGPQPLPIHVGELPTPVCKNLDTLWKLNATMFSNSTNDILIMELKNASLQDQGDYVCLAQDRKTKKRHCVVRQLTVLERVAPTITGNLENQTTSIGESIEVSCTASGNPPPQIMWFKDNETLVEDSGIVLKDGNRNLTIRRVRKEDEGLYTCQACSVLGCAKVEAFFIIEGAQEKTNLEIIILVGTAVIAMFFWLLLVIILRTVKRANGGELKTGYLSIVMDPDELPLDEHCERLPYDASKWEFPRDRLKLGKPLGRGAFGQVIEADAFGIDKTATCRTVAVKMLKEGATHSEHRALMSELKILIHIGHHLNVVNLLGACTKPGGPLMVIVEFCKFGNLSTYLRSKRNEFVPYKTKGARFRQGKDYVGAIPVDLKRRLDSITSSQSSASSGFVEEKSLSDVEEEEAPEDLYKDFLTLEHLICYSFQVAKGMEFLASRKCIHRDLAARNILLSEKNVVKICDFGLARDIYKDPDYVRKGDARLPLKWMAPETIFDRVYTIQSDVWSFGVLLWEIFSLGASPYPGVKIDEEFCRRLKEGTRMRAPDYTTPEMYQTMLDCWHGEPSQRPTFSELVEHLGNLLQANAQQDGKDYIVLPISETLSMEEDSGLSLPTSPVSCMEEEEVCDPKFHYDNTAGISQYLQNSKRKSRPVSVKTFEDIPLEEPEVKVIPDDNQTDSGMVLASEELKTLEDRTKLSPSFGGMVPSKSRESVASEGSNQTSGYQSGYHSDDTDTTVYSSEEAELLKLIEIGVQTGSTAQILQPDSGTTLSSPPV
SMILES,IC50 (TGF-beta receptor type-1 [1]) [nM],IC50 (TGF-beta receptor type-1 [2]) [nM],solubility [3] [mg/mL],inhibition (INH) (Mus musculus [4]) [%],inhibition (INH) (Mus musculus [5]) [%],IC50 [6] [nM]
Cc1csc(-c2nc[nH]c2-c2ccc3ncsc3c2)n1,8.7,2.7,,,,
Cc1csc(-c2nc(C)[nH]c2-c2ccc3ncsc3c2)n1,17,5.8,18.3,,,
CCc1nc(-c2nc(C)cs2)c(-c2ccc3ncsc3c2)[nH]1,35,9,,,,
CCCc1nc(-c2nc(C)cs2)c(-c2ccc3ncsc3c2)[nH]1,33,8.1,14.9,,,
Cc1csc(-c2nc(C(C)C)[nH]c2-c2ccc3ncsc3c2)n1,48,8.2,,,,
Cc1csc(-c2nc(CC(C)C)[nH]c2-c2ccc3ncsc3c2)n1,43,9,,,,
Cc1csc(-c2nc(C(C)(C)C)[nH]c2-c2ccc3ncsc3c2)n1,68,14,3.49,,,
CCCCCCc1nc(-c2nc(C)cs2)c(-c2ccc3ncsc3c2)[nH]1,120,7,,,,
Cc1csc(-c2nc(C(F)(F)F)[nH]c2-c2ccc3ncsc3c2)n1,49,5.8,2.4,,,
Cc1csc(-c2nc(C3CC3)[nH]c2-c2ccc3ncsc3c2)n1,45,8.8,23.6,,,
Cc1csc(-c2nc(C3CCCC3)[nH]c2-c2ccc3ncsc3c2)n1,40,8.7,19.8,,,
Cc1csc(-c2nc(C3CCCCC3)[nH]c2-c2ccc3ncsc3c2)n1,75,12,> 31.8,,,
Cc1csc(-c2nc(C3CCC(=O)CC3)[nH]c2-c2ccc3ncsc3c2)n1,89,23,,,,
Cc1csc(-c2nc(C3CCOCC3)[nH]c2-c2ccc3ncsc3c2)n1,99,21,26.1,,,
Cc1csc(-c2nc(C3CCNCC3)[nH]c2-c2ccc3ncsc3c2)n1,,240,,,,
Cc1csc(-c2[nH]c(CN3CCCC3=O)nc2-c2ccc3ncsc3c2)n1,130,26,,,,
CCCC(=O)N(C)Cc1nc(-c2ccc3ncsc3c2)c(-c2nc(C)cs2)[nH]1,110,28,,,,
CCCCNCc1nc(-c2nc(C)cs2)c(-c2ccc3ncsc3c2)[nH]1,72,13,,,,
CCCC(=O)CCc1nc(-c2nc(C)cs2)c(-c2ccc3ncsc3c2)[nH]1,42,9,,,,

SMILES,IC50 (TGF-beta receptor type-1 [1]) [nM],IC50 (TGF-beta receptor type-1 [2]) [nM],solubility [3] [mg/mL],inhibition (INH) (Mus musculus [4]) [%],inhibition (INH) (Mus musculus [5]) [%],IC50 [6] [nM]
CCCCNC(=O)c1nc(-c2nc(C)cs2)c(-c2ccc3ncsc3c2)[nH]1,420,45,,,,
CCNC(=O)CCc1nc(-c2nc(C)cs2)c(-c2ccc3ncsc3c2)[nH]1,71,12,,,,
CNC(=O)CCCc1nc(-c2nc(C)cs2)c(-c2ccc3ncsc3c2)[nH]1,230,37,,,,
Cc1csc(-c2nc(CCCCC(N)=O)[nH]c2-c2ccc3ncsc3c2)n1,190,8.3,,,,
CCNC(=O)OCc1nc(-c2nc(C)cs2)c(-c2ccc3ncsc3c2)[nH]1,93,7.2,,,,
CCC(=O)NCCc1nc(-c2nc(C)cs2)c(-c2ccc3ncsc3c2)[nH]1,130,25,,,,
CC(=O)NCCCc1nc(-c2nc(C)cs2)c(-c2ccc3ncsc3c2)[nH]1,150,26,,,,
CCNC(=O)NCc1nc(-c2nc(C)cs2)c(-c2ccc3ncsc3c2)[nH]1,130,11,,,,
CCCS(=O)(=O)NCc1nc(-c2nc(C)cs2)c(-c2ccc3ncsc3c2)[nH]1,150,17,,,,
CCOC(=O)NCc1nc(-c2nc(C)cs2)c(-c2ccc3ncsc3c2)[nH]1,35,4.5,,,,
Cc1csc(-c2nc(CN3CCOC3=O)[nH]c2-c2ccc3ncsc3c2)n1,92,8.1,,,,
COC(=O)NCc1nc(-c2nc(C)cs2)c(-c2ccc3ncsc3c2)[nH]1,38,7.7,3.93,,,
CCCOC(=O)NCc1nc(-c2nc(C)cs2)c(-c2ccc3ncsc3c2)[nH]1,36,7.3,9.8,,,
CCCCOC(=O)NCc1nc(-c2nc(C)cs2)c(-c2ccc3ncsc3c2)[nH]1,74,9.1,,,,
CCCCCOC(=O)NCc1nc(-c2nc(C)cs2)c(-c2ccc3ncsc3c2)[nH]1,140,11,,,,
Cc1csc(-c2nc(CNC(=O)OC(C)C)[nH]c2-c2ccc3ncsc3c2)n1,41,8.6,18.2,,,
Cc1csc(-c2nc(CNC(=O)OCC(C)C)[nH]c2-c2ccc3ncsc3c2)n1,36,5.5,,59,90,1080
Cc1csc(-c2nc(CNC(=O)OCC(C)(C)C)[nH]c2-c2ccc3ncsc3c2)n1,79,9.3,,,,

# — ChEMBL document CHEMBL2203157, “5-(1,3-Benzothiazol-6-yl)-4-(4-methyl-1,3-thiazol-2-yl)-1H-imidazole derivatives as potent and selective transforming growth factor-β type I receptor inhibitors” (Bioorg Med Chem, 2012)
